EP4175633B1, “THIENO[3,4-C]PYRAZOL-3-YL […] AUTOTAXIN INHIBITORS” (Uni-Pharma Kleon Tsetis Pharmaceutical Laboratories S.A., priority 2020, dated 2022)
Where two headings read alike, the source gives them in different places.

Columns and labels:
[1] = target: human ATX (Homo sapiens, UniProt Q13822); assay: Amplex Red activity assay (ATX inhibition, LPC hydrolysis); type: biochemical
Procedure: (§1) In a similar approach to TOOS Activity Assay, this widely used method detects the ATX ability to hydrolyze LPC using a test that monitors choline release using Amplex Red fluorescent reagent (10 mM), choline oxidase (0.2 U/mL) and Radish Peroxidase (HRP - 2 U/mL). All reactions were conducted with 2 nM pure ATX and 50 µM LPC (16:0 or 18:0) at 37 °C. Inhibitors (3 mM) were dissolved in dimethyl sulfoxide (DMSO) at concentrations from 0.001 to 5 µmol/L. Fluorescence values were measured on a fluorescent plate reader (Tecan Infinite 200). IC50 values were determined using the values from two independent experiments, using the sigmoid dose-response curve (PrismH software) from the equation f = y0 + a / (1 + exp (- (x-x0) / b) given from SigmaPlot 11.0.
(§2) Subsequently, 50 µL of a buffer solution containing 200 µM LPC 16:0 (final concentration 50 µM) were added to the reaction mixture followed by incubation for another 30 minutes at 37 °C. Finally, 50 µL of working solution containing 200 µM Amplex Red reagent and choline oxidase (0.2 U/mL) κα ? HRP (2 U/mL), in 50 mM Tris-HCl at pH 8.0 and 5 mM CaCl2, was added to begin the reaction. The reaction was monitored at 37 °C, in a fluorescence plate reader (Tecan Infinite 200) using excitation at 530 nm and reading at 590 nm, every five minutes for 30 minutes at 37°C. The IC50 value was calculated from two independent experiments, using the sigmoid dose-response curve (PrismH software) from the equation f=y0+a/(1+exp(-(x-x0)/b) given from SigmaPlot 11.0.
as §2, with “was” for “were”
as §2, with “was” for “were”, “Finally, 50 µL of working solution containing 200 µM Amplex Red reagent and choline oxidase (0.2 U/mL) κα ? HRP (2 U/mL), in 50 mM Tris-HCl at pH 8.0 and 5 mM CaCl2, was added to begin the reaction.” left out
as §2, with “was” for “were”, “Finally, 50 µL of working solution containing 200 µM Amplex Red reagent and choline oxidase (0.2 U/mL) κα ? HRP (2 U/mL), in 50 mM Tris-HCl at pH 8.0 and 5 mM CaCl2, was added to begin the reaction.” left out

[2] = target: mouse ATX (Mus musculus, UniProt Q9R1E6); assay: as above; type: biochemical
Procedure: as §1, §2
as §2, with “was” for “were”, “Finally, 50 µL of working solution containing 200 µM Amplex Red reagent and choline oxidase (0.2 U/mL) κα ? HRP (2 U/mL), in 50 mM Tris-HCl at pH 8.0 and 5 mM CaCl2, was added to begin the reaction.” left out

[3] = human ATX final concentration 1 nM, LPC 16:0 50 µM, 37 °C, two independent experiments, read-out: IC50 value for human ATX inhibition
[4] = ATX final concentration 2 nM, LPC 16:0 50 µM, 37 °C, two independent experiments, read-out: IC50 value for the inhibition of mouse ATX

SMILES | IC50 [1, 3] | IC50 [2, 4] | other results
O=C(O)c1ccc(-n2nc3c(c2NC(=O)c2cccc4ccccc24)CSC3)cc1 [A15] | – | – | IC50 ([2]; mATX 2 nM (values without asterisk), read-out: IC50 (µM) (in mATX 2 nM)): 59.3 µM
O=C(Nc1c2c(nn1-c1ccncc1)CSC2)c1cccc2ccccc12 [A16] | 7.5 µM | – | –
COC(C(=O)Nc1c2c(nn1-c1ccc(Br)cc1)CSC2)(c1ccccc1)C(F)(F)F (centres unmarked) [A17] | 2 µM | – | –
O=C(Nc1c2c(nn1-c1ccc(Br)cc1)CSC2)c1cc(Cl)cc(Cl)c1 [A18] | – | – | IC50 ([1]; values marked *: evaluation performed in human ATX (hATX) 1 nM, read-out: IC50 (µM) (in mATX 2 nM)): 2.5 µM

Second part, led by results:

IC50 [1, 3] | IC50 [2, 4] | SMILES | other results
3.5 µM | 12.7 µM | O=C(Nc1c2c(nn1-c1ccc(Br)cc1)CSC2)c1cccc2ccccc12 [A4] | –
1.3 µM | 2.5 µM | O=C(Nc1c2c(nn1-c1cnccn1)CSC2)c1cccc2ccccc12 [A14] | –
